Source: patent US20250163052A1, “cGAS INHIBITORS AND USES THEREOF” (Cornell University, priority 2022, published 2025)

Experiments:
P301S mice = assay: Novel object recognition test in P301S mice fed TDI-6570 diet; assay type: in vivo, mouse; conditions: 150 mg/kg diet for three months
Source text: P301S transgenic mice (https://www.jax.org/strain/008169) were crossed with cGas knockout mice (https://www.jax.org/strain/026554) to generate littermate P301S cGas+/+ mice, P301S cGas+/− and littermate P301S cGas−/− mice, as well as non-transgenic littermates. Mice of both sexes were used behavioral, histological and biochemical analyses. Mice underwent behavioral testing at 7 to 8 months of age and had not been used for any other experiments. At 9 to 10 months of age, the same mice were used for pathology and RNA-seq studies. For TDI-6570 in vivo treatment, P301S and non-transgenic littermate mice at 6-7 months were used for diet experiments and were assayed for behavior and histology at 9-10 months. Mice were housed under specific pathogen-free conditions under a 12 h light-dark cycle and all mouse protocols were approved by the Institutional Animal Care and Use Committee, University of California, San Francisco.
For experiments involving TDI-6570 treatment, male P301S and Non-transgenic littermates fed with TDI-6570 or control diet were used.
Mice were habituated to opaque open field arenas (40×40 cm) for two 10-minute trials spaced on the two days leading up to object recognition. […] An experimenter blind to the groups manually scored the time mice spent exploring each object. Preference was calculated based on the total time an individual mouse spent exploring both objects. […]

m-cGAS = m-cGAS (Mus musculus, UniProt Q8C6L5); assay: Cell-free mouse cGAS enzyme inhibition assay (ATP depletion, Kinase-Glo Max); assay type: biochemical; conditions: mouse cGAS
Sequence of m-cGAS (Q8C6L5 whole entry): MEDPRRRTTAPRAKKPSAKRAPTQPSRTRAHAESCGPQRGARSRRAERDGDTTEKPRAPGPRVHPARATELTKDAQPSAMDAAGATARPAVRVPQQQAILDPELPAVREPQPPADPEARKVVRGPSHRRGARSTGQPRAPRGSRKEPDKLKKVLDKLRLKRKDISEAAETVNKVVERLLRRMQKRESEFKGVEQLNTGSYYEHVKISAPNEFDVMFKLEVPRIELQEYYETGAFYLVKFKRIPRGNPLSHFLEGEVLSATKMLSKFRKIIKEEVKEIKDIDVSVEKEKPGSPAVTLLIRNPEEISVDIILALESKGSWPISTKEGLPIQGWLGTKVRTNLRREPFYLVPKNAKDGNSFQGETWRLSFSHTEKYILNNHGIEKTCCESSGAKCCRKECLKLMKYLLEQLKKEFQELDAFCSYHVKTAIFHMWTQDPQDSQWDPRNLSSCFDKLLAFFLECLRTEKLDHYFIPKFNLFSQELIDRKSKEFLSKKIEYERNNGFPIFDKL

Cn1c2c(c3ccc(Cl)c(F)c31)CN(C(=O)CO)CC2 [TDI-6570, reference compound]
Defect in recognizing the novel object (novel object recognition test) (P301S mice): rescued | IC50 (m-cGAS): 12.8 nM
